What all share (type): in vivo, SD rats
In assay [1] the test system is rat subcutaneous infiltration model. Nature of the assay: Local anesthetic effect by subcutaneous infiltration, Von Frey needle stimulation of back skin.
Assay [2] relates to sciatic nerve of the rat. As for the experimental part: The experimental methods described in the following test examples were standard procedures unless otherwise specified. All experimental animals used in the following test examples were SD rats purchased from Hunan Slac Jingda Experimental Animal Co., Ltd. Other test materials, unless stated otherwise, were purchased from conventional biochemical reagent suppliers.
The compounds listed in Table 1 and levobupivacaine hydrochloride (positive control) were administered to three groups of rats fully acclimated to the experimental environment, with one rat per group.
Solution Preparation: 2 mg/ml Levobupivacaine Hydrochloride Injection: 2.670 ml of 7.5 mg/ml levobupivacaine hydrochloride injection (Batch No. 92S0702) was pipetted into a 10 ml volumetric flask. 0.9% NaCl solution was added until the meniscus was level with the calibration line, and the solution was inverted and mixed thoroughly, to prepare 2 mg/ml levobupivacaine hydrochloride injection. 2 mg/ml Example Compound Solution: 6.6 mg of the example compound was accurately weighed and dissolved in 3.3 ml of 0.9% NaCl solution to prepare a 2 mg/ml example compound solution.
Both the positive control and the example compound were administered to each rat at 2 mg/ml, with an administration volume of 5 ml/kg, in a single injection near the sciatic nerve of the rat. After the administration, the rat was placed on a preheated hot plate (50±0.1° C.) of an intelligent hot plate instrument. […] The maximum thermal latency was controlled at 60 s. […] Any urine or feces on the hot plate was promptly cleaned and dried before subsequent tests.
Thermal latency results were expressed as the maximum proportional effect (MPE), calculated using the following formula.
Wherein: B represented the basal thermal latency of the rats; P was the maximum thermal latency C was the observed thermal latency at the detection time point.
Measurements were considered invalid if the MPE was less than 50% of the maximum proportional effect. If two consecutive measurements yielded an MPE of less than […], the experiment was terminated.

Assay [3] concerns rat subcutaneous infiltration model. Nature of the assay: Local anesthetic effect by subcutaneous infiltration, Von Frey needle stimulation of back skin. As for the experimental part:
After shaving and disinfecting the backs of SD rats (half male and half female) weighing 190-210 grams, a circle with a diameter of approximately 1.5 cm was drawn on one side of the exposed skin. 0.5 mL of a solution containing the drug was subcutaneously injected into the skin in the center. The solution, using physiological saline as the solvent, contained either 2 mg/ml bupivacaine hydrochloride or 1 mg/ml concentration of the compounds listed in Table 2 of the present application. Each group consisted of 10 rats. A Von Frey fiber with a 100-gram force was attached to a needle for local skin stimulation. One minute after drug administration, the rat's response to the stimulus was measured. Testing was conducted at 6 different points within the marked area of drug administration. Skin contraction, avoidance, and other behaviors following stimulation were observed and recorded. Three points in the center and three points around the circle were stimulated, and the number of skin contraction and avoidance behaviors was recorded as N6. […] Each compound was tested on 10 rats.
This is another data set of the same source.

Where [4] appears, read: 2 mg/ml, 5 ml/kg, single injection near the sciatic nerve of the rat, hot plate 50±0.1° C.
[5] abbreviates: 1 mg/ml, 0.5 mL subcutaneous injection on the back, 10 rats.

Structures can show the parent of a compound that is named as a salt. Where two headings read alike, the source gives them in different places.

For the compound `CCCC[N+]1(CCCCNc2ccc(F)cc2)CCCC[C@H]1C(=O)Nc1c(C)cccc1C` (stereo partly drawn) [Compound of Example 3, (2S)-1-Butyl-2-((2,6-dimethylphenyl)carbamoyl)-1-(4-(p-fluorophenylamino)butyl)piperidine bromide], the Duration/h in assay [1] (Drug Concentration 0.3 mmol/L) lay in the range of 24 to 48 h; in assay [1] (Drug Concentration 1 mmol/L), 48 to 72 h; in assay [3] (setting [5]) it was 72 to 96 h. In addition, the “Onset Time/min” value in assay [2] (setting [4]) and in assay [3] (setting [5]) was 1 min in each case.
Consider `CCCC[N+]1(CCCCOc2cccc(C)c2)CCCC[C@H]1C(=O)Nc1c(C)cccc1C` (stereo partly drawn) [Compound of Example 5, (2S)-1-Butyl-2-((2,6-dimethylphenyl)carbamoyl)-1-(4-(m-tolyloxy)butyl)piperidine bromide], for which the Duration/h lay within 24 to 48 h in assay [1] (Drug Concentration 0.3 mmol/L), 48 to 72 h in assay [1] (Drug Concentration 1 mmol/L), 48 to 72 h in assay [2] (setting [4]) and 72 to 96 h in assay [3] (setting [5]). In addition, the “Onset Time/min” value in assay [2] (setting [4]) and in assay [3] (setting [5]) was 1 min in each case.
With `CCCC[N+]1(CCCCOc2ccc(F)cc2)CCCC[C@H]1C(=O)Nc1c(C)cccc1C` (stereo partly drawn) [Compound of Example 24, (2S)-1-Butyl-2-((2,6-dimethylphenyl)carbamoyl)-1-(4-(4-fluorophenoxy)butyl)piperidine bromide], the “Onset Time/min” value in assay [2] (setting [4]) was found to be 1 min. Also, in assay [3] (setting [5]), the Duration/h was in the range of 48 to 72 h and the “Onset Time/min” value came out at 1 min.
As for `CCCC[N+]1(CCCCOc2c(C)cc(C)cc2C)CCCC[C@H]1C(=O)Nc1c(C)cccc1C` (stereo partly drawn) [Compound of Example 25, (2S)-1-Butyl-2-((2,6-dimethylphenyl)carbamoyl)-1-(4-(symmetricalmesityloxy)butyl)piperidine bromide], the Duration/h in assay [1] (Drug Concentration 0.3 mmol/L) was 24 to 48 h; in assay [1] (Drug Concentration 1 mmol/L), 48 to 72 h; in assay [3] (setting [5]), 72 to 96 h. Moreover, the “Onset Time/min” value in assay [2] (setting [4]) and in assay [3] (setting [5]) was 1 min in each case.
In the case of `CCCC[N+]1(CCCCOc2cccc(F)c2)CCCC[C@H]1C(=O)Nc1c(C)cccc1C` (stereo partly drawn) [Compound of Example 26, (2S)-1-Butyl-2-((2,6-dimethylphenyl)carbamoyl)-1-(4-(3-fluorophenoxy)butyl)piperidine bromide], in assay [2] (setting [4]), the Duration/h was 24 to 42 h and the “Onset Time/min” value came out at 1 min. In addition, in assay [3] (setting [5]), the Duration/h was in the range of 48 to 72 h and the “Onset Time/min” value is on record as 1 min.
As to `CCCC[N+]1(CCCCOc2cccc(C#N)c2)CCCC[C@H]1C(=O)Nc1c(C)cccc1C` (stereo partly drawn) [Compound of Example 27, (2S)-1-Butyl-1-(4-(3-cyanophenoxy)butyl)-2-((2,6-dimethylphenyl)carbamoyl)piperidine bromide], in assay [2] (setting [4]), the Duration/h lay within 24 to 48 h and the “Onset Time/min” value is given as 1 min. Besides, in assay [3] (setting [5]), the Duration/h was in the range of 48 to 72 h and the “Onset Time/min” value came to 1 min.
With `CCCC[N+]1(CCCCOc2cccc(C(F)(F)F)c2)CCCC[C@H]1C(=O)Nc1c(C)cccc1C` (stereo partly drawn) [Compound of Example 28, (2S)-1-Butyl-2-((2,6-dimethylphenyl)carbamoyl)-1-(4-(3-(trifluoromethyl)phenoxy)butyl) piperidine bromide], in assay [2] (setting [4]), the Duration/h fell in the range of 24 to 48 h and the “Onset Time/min” value was 1 min. For the same compound, in assay [3] (setting [5]), the Duration/h was 48 to 72 h and the “Onset Time/min” value turned out to be 1 min.
As to `CCCC[N+]1(CCCCOc2ccccc2C)CCCC[C@H]1C(=O)Nc1c(C)cccc1C` (stereo partly drawn) [Compound of Example 30, (2S)-1-Butyl-2-((2,6-dimethylphenyl)carbamoyl)-1-(4-(o-tolyloxy)butyl)piperidine bromide], the Duration/h was 24 to 48 h in assay [1] (Drug Concentration 0.3 mmol/L); 48 to 72 h in assay [1] (Drug Concentration 1 mmol/L); 72 to 96 h in assay [2] (rat, in vivo); 72 to 96 h in assay [3] (setting [5]). Besides, the “Onset Time/min” value in assay [2] (rat, in vivo) is reported as 1 min; in assay [3] (setting [5]), 1 min.
For `CCCC[N+]1(CCCCOc2ccc(C)cc2)CCCC[C@H]1C(=O)Nc1c(C)cccc1C` (stereo partly drawn) [Compound of Example 31, (2S)-1-Butyl-2-((2,6-dimethylphenyl)carbamoyl)-1-(4-(p-tolyloxy)butyl)piperidine bromide], in assay [2] (setting [4]), the Duration/h is 24 to 30 h and the “Onset Time/min” value worked out at 1 min. In assay [3] (setting [5]), the Duration/h lay in the range of 48 to 72 h and the “Onset Time/min” value stood at 1 min.
Consider `Cc1cccc(C)c1NC(=O)[C@@H]1CCCC[N+]1(CCCCOc1ccccc1)CC1CCCC1` (stereo partly drawn) [Compound of Example 36, (2S)-1-(Cyclopentylmethyl)-2-((2,6-dimethylphenyl)carbamoyl)-1-(4-phenoxybutyl)piperidine bromide], for which, in assay [2] (setting [4]), the Duration/h is 30 to 48 h and the “Onset Time/min” value was 1 min. Moreover, in assay [3] (setting [5]), the Duration/h was in the range of 48 to 72 h and the “Onset Time/min” value is 1 min.
As to `Cc1cccc(C)c1NC(=O)[C@@H]1CCCC[N+]1(CCCCOc1ccccc1)CCCC(C)C` (stereo partly drawn) [Compound of Example 38, (2S)-2-((2,6-Dimethylphenyl)carbamoyl)-1-(4-methylpentyl)-1-(4-phenoxybutyl)piperidine bromide], in assay [2] (rat, in vivo), the Duration/h lay in the range of 48 to 72 h and the “Onset Time/min” value was 1 min. In assay [3] (setting [5]), the Duration/h is 48 to 72 h and the “Onset Time/min” value was determined as 1 min.
Turning to `CCCC[N+]1(CCCCOc2ccccc2)CCCC[C@H]1C(=O)Nc1ccc(F)cc1` (stereo partly drawn) [Compound of Example 39, (2S)-1-Butyl-2-((4-fluorophenyl)carbamoyl)-1-(4-phenoxybutyl)piperidine bromide], the Duration/h lay in the range of 24 to 48 h in assay [1] (Drug Concentration 0.3 mmol/L); 48 to 72 h in assay [1] (Drug Concentration 1 mmol/L); 72 to 96 h in assay [2] (rat, in vivo); 72 to 96 h in assay [3] (setting [5]). In addition, the “Onset Time/min” value in assay [2] (rat, in vivo) amounted to 1 min; in assay [3] (setting [5]), 1 min.
In the case of `CCCC[N+]1(CCCCOc2ccccc2)CCCC[C@H]1C(=O)Nc1c(Br)cccc1Br` (stereo partly drawn) [Compound of Example 40, (2S)-1-Butyl-2-((2,6-dibromophenyl)carbamoyl)-1-(4-phenoxybutyl)piperidine bromide], in assay [2] (rat, in vivo), the Duration/h is 32 to 48 h and the “Onset Time/min” value amounted to 1 min. Moreover, in assay [3] (setting [5]), the Duration/h fell in the range of 48 to 72 h and the “Onset Time/min” value is given as 1 min.
In the case of `CCCC[N+]1(CCCCOc2cccc3c2OC(C)(C)C3)CCCC[C@H]1C(=O)Nc1c(C)cccc1C` (stereo partly drawn) [Compound of Example 44, (2S)-1-Butyl-1-(4-((2,2-dimethyl-2,3-dihydrobenzofuran-7-yl)oxy)butyl)-2-((2,6-dimethylphenyl)carbamoyl)piperidine bromide], the “Onset Time/min” value in assay [2] (setting [4]) stood at 1 min. Besides, in assay [3] (setting [5]), the Duration/h fell in the range of 48 to 72 h and the “Onset Time/min” value turned out to be 1 min.
On to `CCCCN1CCCC[C@H]1C(=O)Nc1c(C)cccc1C` [Levobupivacaine Hydrochloride, reference compound], for which the Duration/h in assay [2] (setting [4]) turned out to be 3 h; in assay [3] (Drug Concentration 6.9 mmol/L, subcutaneous infiltration) it was 3 h; in assay [3] (control at 2 mg/ml (6.9 mmol/L), 0.5 mL subcutaneous injection on the back), 3 h.
As for “(2S)-1-Butyl-2-((4-fluorophenyl)carbamoyl)-1-(4-(m-tolyloxy)butyl)piperidine bromide [Compound of Example 22]”, in assay [2] (setting [4]), the Duration/h lay in the range of 48 to 72 h and the “Onset Time/min” value was found to be 1 min. In assay [3] (setting [5]), the Duration/h was in the range of 48 to 72 h and the “Onset Time/min” value was 1 min.

Values taken from patent US20250326755A1, “CYCLIC QUATERNARY AMMONIUM SALT COMPOUND, AND PREPARATION METHOD THEREFOR AND USE THEREOF” (YICHANG HUMANWELL PHARMACEUTICAL CO., LTD., priority 2022, published 2025).
